From patent US10227331B2 (priority 2015, dated 2019)
pIC50: −log10 of the molar value.

Legend:
IMP-1 = IMP-1 (Serratia marcescens, UniProt P52699); assay: biochemical; assay type: biochemical; conditions: CCF2-FA substrate, 2 hours at 25° C; read-out: IMP-1 IC50
Method in brief: (§1)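 Fluorescence assay of metallo-β-lactamase activity using CCF2-FA, a cephalosporin-linked 7-hydroxycoumarin–fluorescein substrate. Inhibitor, enzyme and substrate were incubated together for 2 hours at 25° C. IC50 came from a 4-parameter fit of inhibition versus inhibitor concentration.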

NDM-1 = NDM-1 (Klebsiella pneumoniae, UniProt C7C422); assay: biochemical; assay type: biochemical; conditions: CCF2-FA substrate, 2 hours at 25° C; read-out: NDM-1 IC50
Method in brief: as §1

VIM-1 = VIM-1 (Pseudomonas aeruginosa (strain ATCC 15692 / DSM 22644 / CIP 104116 / JCM 14847 / LMG 12228 / 1C / PRS 101 / PAO1), UniProt A0A0F7KYQ8); assay: biochemical; conditions: CCF2-FA substrate, 2 hours at 25° C
Method in brief: as §1

[1] = tested on: Klebsiella pneumoniae expressing VIM-1 (IHMA599644); assay type: cell-based; conditions: with imipenem 1 μg/ml, 95% inhibition of bacterial growth; for Klebsiella pneumoniae MITC95: VIM-1 (IHMA599644)
Method in brief: (§2)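 Clinical strains grown overnight on blood agar, then diluted 1:100 in 1.1× CAMHB and exposed to test compound with imipenem at 1 μg/ml. Incubation was 22–24 h at 35° C; growth was read by absorbance to find the compound concentration restoring imipenem susceptibility.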

[2] = tested on: Escherichia coli expressing NDM-1 (CLB30005, CLB30016); assay type: cell-based; conditions: with imipenem 1 μg/ml, 95% inhibition of bacterial growth; for Escherichia coli MITC95: NDM-1 (CLB30016)
Method in brief: as §2

[3] = tested on: Serratia marcescens expressing IMP-1 (CL5741); assay type: cell-based; conditions: with imipenem 1 μg/ml, 95% inhibition of bacterial growth; for Serratia marcescens MITC95: IMP-1 (CL5741)
Method in brief: as §2

[4] = tested on: P. aeruginosa expressing IMP-1, efflux− (MB9799); assay: Efflux: concentration of MBL inhibitor which restores susceptibility to imipenem; assay type: cell-based, Pseudomonas aeruginosa; conditions: imipenem at 2 μg/mL, in the presence of a class A, C, D serine β-lactamase inhibitor closely related to relebactam
Source text: (§3) The strain background is Pseudomonas aeruginosa PAO1.

[5] = tested on: P. aeruginosa expressing IMP-1, efflux+ (MB9798); assay type: cell-based, Pseudomonas aeruginosa; conditions: for P. aeruginosa expressing IMP-1, efflux+ (MB9798) MITC95: imipenem at 2 μg/mL, in the presence of a class A, C, D serine β-lactamase inhibitor closely related to relebactam; for Efflux ratio: ratio MITC95 PA_9798/MITC95 PA_9799
Source text: as §3

Chain of NDM-1 (C7C422 whole entry, looked up, species assumed): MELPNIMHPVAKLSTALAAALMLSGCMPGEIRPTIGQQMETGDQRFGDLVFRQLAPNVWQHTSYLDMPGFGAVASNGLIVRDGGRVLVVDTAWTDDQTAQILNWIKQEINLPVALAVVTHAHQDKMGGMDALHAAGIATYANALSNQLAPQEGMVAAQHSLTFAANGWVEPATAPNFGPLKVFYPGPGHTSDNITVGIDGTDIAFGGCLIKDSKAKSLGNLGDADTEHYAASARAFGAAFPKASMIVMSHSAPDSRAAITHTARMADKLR
Chain of IMP-1 (P52699 whole entry, looked up, species assumed): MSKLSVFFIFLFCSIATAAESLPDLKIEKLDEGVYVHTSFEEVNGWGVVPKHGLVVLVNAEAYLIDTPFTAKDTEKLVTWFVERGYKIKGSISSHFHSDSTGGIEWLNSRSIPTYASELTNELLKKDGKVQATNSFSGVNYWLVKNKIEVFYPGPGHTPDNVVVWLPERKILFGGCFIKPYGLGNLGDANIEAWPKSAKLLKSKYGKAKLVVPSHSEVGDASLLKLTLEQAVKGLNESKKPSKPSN

SMILES	pIC50 (IMP-1)	pIC50 (NDM-1)	pIC50 (VIM-1)	Klebsiella pneumoniae expressing VIM-1 (IHMA599644) MITC95 [1] [µM]	Escherichia coli expressing NDM-1 (CLB30016) MITC95 [2] [µM]	Serratia marcescens expressing IMP-1 (CL5741) MITC95 [3] [µM]	P. aeruginosa expressing IMP-1, efflux− (MB9799) MITC95 [4] [µM]	P. aeruginosa expressing IMP-1, efflux+ (MB9798) MITC95 [5] [µM]	Efflux ratio [5]	Klebsiella pneumoniae MITC95 [1] [µM]	Escherichia coli MITC95 [2] [µM]	Serratia marcescens MITC95 [3] [µM]
Nc1cncc(-c2ccc(S(=O)(=O)C3CNC3)c(S(N)(=O)=O)c2-c2nnn[nH]2)c1.O=C(O)C(F)(F)F [Example 112, 3-((4-(5-aminopyridin-3-yl)-2-sulfamoyl-3-(1H-tetrazol-5-yl)phenyl)sulfonyl)azetidin-1-ium 2,2,2-trifluoroacetate]	8.06	8.60	8.75	6.25	3.125	3.125	3.125	12.5	4.00			
NC[C@H](O)CS(=O)(=O)c1ccc(-c2cccc(-c3c[nH]c(N)n3)c2)c(-c2nn[nH]n2)c1S(N)(=O)=O [Example 366, (S)-3'-(2-amino-1H-imidazol-4-yl)-4-((3-amino-2-hydroxypropyl)sulfonyl)-2-(2H-tetrazol-5-yl)-[1,1'-biphenyl]-3-sulfonamide]	8.74	9.21	8.93				1.563	3.125	2.00	1.563	0.7813	1.563
NS(=O)(=O)c1c(S(=O)(=O)C2CNC2)ccc([C@H]2CC[C@@H](N)CC2)c1-c1nnn[nH]1 [Example 213, 3-((1s,4s)-4-aminocyclohexyl)-6-(azetidin-3-ylsulfonyl)-2-(1H-tetrazol-5-yl) benzenesulfonamide]	7.17	7.89	8.15	3.125	1.563	1.563	1.563	6.25	4.00			
Nc1nc2cc(F)cc(-c3ccc(S(=O)(=O)C4CNC4)c(S(N)(=O)=O)c3-c3nnn[nH]3)c2[nH]1 [Example 262, 3-(2-amino-5-fluoro-1H-benzo[d]imidazol-7-yl)-6-(azetidin-3-ylsulfonyl)-2-(1H-tetrazol-5-yl) benzenesulfonamide]	9.30	10.10	9.49				0.7813	0.7813	1.00	3.125	0.7813	1.563
CN(C)CCS(=O)(=O)c1ccc(-c2cccc3sc(N)nc23)c(-c2nn[nH]n2)c1S(N)(=O)=O [Example 326, 3-(2-aminobenzo[d]thiazol-4-yl)-6-((2-(dimethylamino)ethyl)sulfonyl)-2-(2H-tetrazol-5-yl)benzenesulfonamide]	9.60	10.12	9.78				1.563	1.563	1.00	6.25	3.125	3.125
Cc1nc2c(-c3ccc(S(=O)(=O)CCN)c(S(N)(=O)=O)c3-c3nn[nH]n3)cccc2[nH]1 [Example 331, 6-((2-aminoethyl)sulfonyl)-3-(2-methyl-1H-benzo[d]imidazol-4-yl)-2-(2H-tetrazol-5-yl) benzenesulfonamide]	9.52	9.78	9.74				1.563	1.563	1.00	6.25	3.125	1.563
